Holding throughout (type): cell-based
Assay [1] is described as follows: Hoechst 33342 nuclear staining (48 h read-out). The essentials:
(§1)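 Adherent cells pre-spread 24 h before dosing, suspension cells dosed at seeding; compounds at 0.001 μM-10 μM final, 48 h at culture conditions. Hoechst 33342 (2-5 μg/ml) added for 30 min, then fluorescence microscopy scoring of apoptotic nuclear fraction and apoptosis-specific morphology, reported as scores A-D.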

Assay [2] concerns tumor cells. Description: Hoechst 33342 nuclear staining (48 h read-out). Summed up: as §1
The nature of assay [3]: MTS proliferation assay (72 h read-out). The following applies: MRC5 cells. The essentials:
(§2)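 Viability was read by MTS absorbance at 492 nm after 3 h with reagent. Before that, cells plated a day earlier at 1.5×10^3–10^4 per well had been incubated with test compound at final concentrations of 0.001–10 μM for 72 h; activity is given as category scores A–D.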
In general terms: Formazan colour is commonly taken as a measure of viable cells.

The subject of assay [4] is tumor cells. Description: MTS proliferation assay (72 h read-out). Summed up:
as §2

The nature of assay [5]: Mitochondrial membrane potential, JC-1 (read-out 48 h). The following applies: PBL, JC-1, 48 h. The essentials:
(§3)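 Tumor cells were treated with test compounds (adherent cells after 24 h of attachment, suspension cells immediately), medium holding up to 5% DMSO. After 48 h, JC-1 (2-5 μg/ml in added medium) was applied for 30 min. Fluorescence microscopy (FITC/TRITC filters) scored the fraction of cells with dissipated mitochondrial membrane potential as categories A-D.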

Assay [6] relates to tumor cells. The assay is described as above. The following applies: JC-1, 48 h. The essentials: as §3
[7] abbreviates: MRC5 cells, read-out: Hoechst 33342 nuclear staining EC50, MRC5.
[8] abbreviates: PBL, read-out: Hoechst 33342 nuclear staining EC50, PBL.
Setting [9] is: HeLa cells, read-out: Hoechst 33342 nuclear staining EC50, HeLa.
[10] abbreviates: Jily cells, read-out: Hoechst 33342 nuclear staining EC50, Jily.
Setting [11] is: Jurkat cells, read-out: Hoechst 33342 nuclear staining EC50, Jurkat.
The mark [12] stands for this setting: HT1080 cells, read-out: MTS proliferation assay IC50, HT1080.
The mark [13] stands for this setting: HeLa cells, read-out: MTS proliferation assay IC50, HeLa.
[14] abbreviates: Jily cells, read-out: MTS proliferation assay IC50, Jily.
Setting [15] is: Jurkat cells, read-out: MTS proliferation assay IC50, Jurkat.
[16] abbreviates: HeLa cells, read-out: Mitochondrial membrane potential (read-out 48 h) HeLa.
Where [17] appears, read: Jily cells, read-out: Mitochondrial membrane potential (read-out 48 h) Jily.
The mark [18] stands for this setting: Jurkat cells, read-out: Mitochondrial membrane potential (read-out 48 h) Jurkat.
The mark [19] stands for this setting: MCF7 cells, read-out: Mitochondrial membrane potential (read-out 48 h) MCF7.

From US8486996B2, “Aroylfuranes and aroylthiophenes” (Basilea Pharmaceutica AG, priority 2006, dated 2013) come the findings set out here.

pEC50, pIC50: −log10 of the molar value. Like-named read-outs stand apart in the source and are kept apart here.

Turning to `CCOc1ccccc1C(=O)c1oc2ccc(OC)cc2c1N` [Example 47], the pEC50 is 7.00 to 8.00 in assay [1] (setting [7]); less than 6.00 in assay [1] (setting [8]); 7.00 to 8.00 in the assay on tumor cells [2] (setting [9]); more than 8.00 in the assay with tumor cells [2] (setting [10]); more than 8.00 in the assay on tumor cells [2] (setting [11]); less than 6.00 in assay [5]. Also, the pEC50 with tumor cells [6] (setting [16]) is 7.00 to 8.00; with tumor cells [6] (setting [17]), 7.00 to 8.00; in the assay with tumor cells [6] (setting [18]) it was 7.00 to 8.00; in the assay with tumor cells [6] (setting [19]), less than 6.00. For the same compound, the pIC50 was 7.00 to 8.00 in assay [3]; more than 8.00 with tumor cells [4] (setting [12]); 7.00 to 8.00 in the assay with tumor cells [4] (setting [13]); more than 8.00 with tumor cells [4] (setting [14]); more than 8.00 with tumor cells [4] (setting [15]).
For the compound `CCOc1ccc(F)cc1C(=O)c1oc2ccc(OC)cc2c1NC(=O)OC` [Example 49], the pEC50 in assay [1] (setting [7]) was less than 6.00; in assay [1] (setting [8]) it was less than 6.00; in the assay with tumor cells [2] (setting [9]), 6.00 to 7.00; with tumor cells [2] (setting [10]), 7.00 to 8.00; in the assay on tumor cells [2] (setting [11]), 7.00 to 8.00; in assay [5], less than 6.00. The pEC50 with tumor cells [6] (setting [16]) was 6.00 to 7.00; in the assay on tumor cells [6] (setting [17]), 7.00 to 8.00; in the assay on tumor cells [6] (setting [18]), 7.00 to 8.00; in the assay on tumor cells [6] (setting [19]) it was less than 6.00. For the same compound, the pIC50 was 7.00 to 8.00 in assay [3]; 7.00 to 8.00 with tumor cells [4] (setting [12]); 6.00 to 7.00 in the assay on tumor cells [4] (setting [13]); 7.00 to 8.00 in the assay on tumor cells [4] (setting [14]); 7.00 to 8.00 in the assay with tumor cells [4] (setting [15]).
For `CCOc1ccc(OCC)c(C(=O)c2oc3ccc(Cl)cc3c2N)c1` [Example 19], the pEC50 in assay [1] (Homo sapiens, MRC5 cells, read-out: Hoechst 33342 nuclear staining EC50, MRC5) is 6.00 to 7.00; in assay [1] (setting [8]), less than 6.00; in the assay with tumor cells [2] (Homo sapiens, HeLa cells, read-out: Hoechst 33342 nuclear staining EC50, HeLa) it was 6.00 to 7.00; in the assay with tumor cells [2] (Homo sapiens, Jurkat cells, read-out: Hoechst 33342 nuclear staining EC50, Jurkat), 6.00 to 7.00; in the assay with tumor cells [2] (setting [10]), 6.00 to 7.00; in assay [5], less than 6.00. The pEC50 with tumor cells [6] (Homo sapiens, HeLa cells, read-out: Mitochondrial membrane potential (read-out 48 h) HeLa) was 6.00 to 7.00; in the assay with tumor cells [6] (Homo sapiens, Jurkat cells, read-out: Mitochondrial membrane potential (read-out 48 h) Jurkat), 6.00 to 7.00; in the assay on tumor cells [6] (Homo sapiens, MCF7 cells, read-out: Mitochondrial membrane potential (read-out 48 h) MCF7), 6.00 to 7.00; in the assay on tumor cells [6] (setting [17]), 6.00 to 7.00. Besides, the pIC50 in assay [3] (Homo sapiens) is 6.00 to 7.00; in the assay with tumor cells [4] (Homo sapiens, HT-1080, HT1080 cells, read-out: MTS proliferation assay IC50, HT1080), 6.00 to 7.00; with tumor cells [4] (Homo sapiens, HeLa cells, read-out: MTS proliferation assay IC50, HeLa), 6.00 to 7.00; in the assay with tumor cells [4] (setting [14]), 6.00 to 7.00.
In the case of `COc1ccc2oc(C(=O)c3cc(F)ccc3N3CCCC(C)C3)cc2c1` (stereo not shown) [Example 99], the pEC50 in assay [1] (setting [7]) was less than 6.00; in assay [1] (setting [8]), less than 6.00; in the assay with tumor cells [2] (setting [9]), 6.00 to 7.00; with tumor cells [2] (setting [10]), 6.00 to 7.00; with tumor cells [2] (setting [11]), 6.00 to 7.00; in assay [5], less than 6.00. The pEC50 in the assay on tumor cells [6] (setting [16]), in the assay on tumor cells [6] (setting [17]), with tumor cells [6] (setting [18]) and with tumor cells [6] (setting [19]) was 6.00 to 7.00 in each case. The pIC50 in assay [3] was 7.00 to 8.00; in the assay with tumor cells [4] (setting [12]), 6.00 to 7.00; in the assay with tumor cells [4] (setting [13]) it was 6.00 to 7.00; with tumor cells [4] (setting [14]), 7.00 to 8.00; in the assay on tumor cells [4] (setting [15]) it was 7.00 to 8.00.
As for `CN(C)CCOc1ccccc1C(=O)c1oc2ccc(Cl)cc2c1N` [Example 11], the pEC50 (in assay [1] (setting [7]); in assay [1] (setting [8]); in the assay with tumor cells [2] (setting [9]); in the assay with tumor cells [2] (setting [10]); with tumor cells [2] (setting [11]); in assay [5]) was less than 6.00 in each case. The pEC50 in the assay with tumor cells [6] (setting [16]), with tumor cells [6] (setting [17]), in the assay on tumor cells [6] (setting [18]) and in the assay with tumor cells [6] (setting [19]) was less than 6.00 each time. In addition, the pIC50 (in assay [3]; with tumor cells [4] (setting [12]); in the assay on tumor cells [4] (setting [13]); with tumor cells [4] (setting [14]); in the assay on tumor cells [4] (setting [15])) was less than 6.00 in each case.
Consider `CCOc1ccc(F)cc1C(=O)c1oc2ccc(OC)cc2c1NS(C)(=O)=O` [Example 54], for which the pEC50 in assay [1] (setting [7]) is 6.00 to 7.00; in assay [1] (setting [8]), less than 6.00; in the assay on tumor cells [2] (setting [9]), 6.00 to 7.00; in the assay with tumor cells [2] (setting [10]), 7.00 to 8.00; with tumor cells [2] (setting [11]) it was 7.00 to 8.00; in assay [5], less than 6.00. The pEC50 with tumor cells [6] (setting [16]) was 6.00 to 7.00; in the assay with tumor cells [6] (setting [17]), 6.00 to 7.00; in the assay with tumor cells [6] (setting [18]), 7.00 to 8.00; in the assay on tumor cells [6] (setting [19]), 7.00 to 8.00. Moreover, the pIC50 (in assay [3]; in the assay with tumor cells [4] (setting [12]); in the assay on tumor cells [4] (setting [13]); in the assay on tumor cells [4] (setting [14])) was 7.00 to 8.00 each time.
